Source: US20060110456A1, “Method for biocidal and/or biostatic treatment and compositions therefor” (NATIONAL UNIVERSITY OF SINGAPORE, priority 2004, published 2006)
“Also recorded” adds a separate entry of the source. Counter-ions that a name gives are not always drawn. Like-named read-outs stand apart in the source and are kept apart here.

Tests used:
[1] = system: marine bacteria (26 strains); test: Disk inhibition assay; format: cell-based, marine bacteria isolated from Singapore fouling communities; conditions: for zone of inhibition at 25 µg/disc: 25 μg per disc; for zone of inhibition at 50 µg/disc: 50 μg per disc
In short: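 Tablets or capsule powders suspended in sterile water at 2 mg ml^−1 and loaded onto disks; antibiotic discs (Amp, Ery, Str, Tet) served as comparison. Disks placed on swabbed lawns on Marine Agar, incubated overnight in the dark at 30° C. Zone of clearing diameter measured by calipers; three replicates on three occasions.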

[2] = system: Balanus amphitrite cyprids; test: whole plant or invertebrate; conditions: for IC50: Amphibalanus amphitrite, 24 h, read-out: ED50; for Prevention of settlement of barnacle cyprids: crude rank, best (1) to worst (8)
[3] = system: hard fouling (barnacles, serpulids, spirorbids); test: Field testing of coated rods; format: in vivo; set-up: Total hard fouling, difference in mean cover (%), drug vs control / Barnacles, difference in mean cover (%), drug vs control: tested at 25 µg/ml of coating; Serpulids, difference in mean cover (%), drug vs control: tested at 25 µg/ml of coating mix; conditions: for Overall performance in field assay: crude rank, best (1) to worst (8); for Barnacles, difference in mean cover (%), drug vs VC50 / Serpulids, difference in mean cover (%), drug vs VC50 / Spirorbids, difference in mean cover (%), drug vs VC50 / Total hard fouling, difference in mean cover (%), drug vs VC50: drug + VC50 rods vs VC50 control; for Barnacles, difference in mean cover (%), drug vs control / Serpulids, difference in mean cover (%), drug vs control / Spirorbids, difference in mean cover (%), drug vs control / Total hard fouling, difference in mean cover (%), drug vs control: drug + VC50 rods vs uncoated blank control; for Reduction of total hard fouling cover compared to VC50 alone / Effect of addition of drug on antifouling performance of VC50 coating (total hard fouling): drug at 25 ug per ml of VC50 coating; for Barnacles Mean cover (%) / Serpulids Mean cover (%) / Spirorbids Mean cover (%) / Total hard fouling Mean cover (%): rods coated with drug + VC50, field test; for Total hard fouling Mean cover (%): percentage cover within 6 mm×50 mm transect
[4] = crude rank, best (1) to worst (8)

With `CN1CCN(C(c2ccccc2)c2ccccc2)CC1` [CYZ, Cyclizine hydrochloride] the “Antibiotic activity against marine bacteria” value (“Antibiotic activity” below) ([1]; 25 or 50 μg per disc, in words) was “did not have any appreciable antibiotic activity against marine bacteria”, the “Antibiotic activity” value [1, 4] was 8 and the IC50 [2] was 0.156 mg/L. For the same compound, the “Prevention of settlement of barnacle cyprids” value [2] was 4, the Performance against barnacles ([3]; coated rods, in words) was “significantly lower than both blank and VC50 controls” and the “Performance against serpulid polychaetes” value ([3]; coated rods, in words) was “significantly enhanced the performance of VC50 against serpulid polychaetes”. For the same compound, the “Overall performance in field assay” value [3] was 5, the “Barnacles, difference in mean cover (%), drug vs VC50” value [3] was −13% and the “Serpulids, difference in mean cover (%), drug vs VC50” value [3] was −1.67%. For the same compound, the “Spirorbids, difference in mean cover (%), drug vs VC50” value [3] was −5%, the “Total hard fouling, difference in mean cover (%), drug vs VC50” value [3] was −19.7% and the “Barnacles, difference in mean cover (%), drug vs control” value [3] was −77.34%. The “Serpulids, difference in mean cover (%), drug vs control” value [3] was −6.67%, the “Spirorbids, difference in mean cover (%), drug vs control” value [3] was “+6%” and the “Total hard fouling, difference in mean cover (%), drug vs control” value [3] was −78.0%. For the same compound, the “Reduction of total hard fouling cover compared to VC50 alone” value [3] was 47.2%, the “Effect of addition of drug on antifouling performance of VC50 coating (total hard fouling)” value ([3]; in words, hydrochloride) was “marginally increased the performance of VC50 coating; also recorded: significantly improved the performance of VC50 coating” and the “Barnacles Mean cover (%)” value [3] was 10.33%. The “Serpulids Mean cover (%)” value [3] was 0%, the “Spirorbids Mean cover (%)” value [3] was 11.67% and the “Total hard fouling Mean cover (%)” value [3] was 22.0%.

For `CN1CCN(CCCN2c3ccccc3Sc3ccc(Cl)cc32)CC1` [PCZ, prochlorperazine maleate], the “Antibiotic activity” value [1] was “strongest activity”, the “Antibiotic activity” value [1, 4] was 3 and the zone of inhibition at 25 µg/disc ([1]; strain 1 (Rhodovulum)) was under 5 mm. For the same compound, the zone of inhibition at 50 µg/disc ([1]; strain 1 (Rhodovulum)) was under 5 mm, the zone of inhibition at 25 µg/disc ([1]; strain 2 (Erythrobacter)) was under 5 mm and the zone of inhibition at 50 µg/disc ([1]; strain 2 (Erythrobacter)) was under 5 mm. It also gave a zone of inhibition at 25 µg/disc ([1]; strain 3 (Erythrobacter)) of 10 to 19 mm, a zone of inhibition at 50 µg/disc ([1]; strain 3 (Erythrobacter)) of 10 to 19 mm and a zone of inhibition at 25 µg/disc ([1]; strain 4 (Bacillus)) of 10 to 19 mm. For the same compound, the zone of inhibition at 50 µg/disc ([1]; strain 4 (Bacillus)) was 10 to 19 mm, the zone of inhibition at 25 µg/disc ([1]; strain 6 (Vibrio)) was under 5 mm and the zone of inhibition at 50 µg/disc ([1]; strain 6 (Vibrio)) was 5 to 9 mm. For the same compound, the zone of inhibition at 25 µg/disc ([1]; strain 7 (Vibrio)) was under 5 mm, the zone of inhibition at 50 µg/disc ([1]; strain 7 (Vibrio)) was under 5 mm and the zone of inhibition at 25 µg/disc ([1]; strain 8 (Bacillus)) was 10 to 19 mm. It also gave a zone of inhibition at 50 µg/disc ([1]; strain 8 (Bacillus)) of 10 to 19 mm, a zone of inhibition at 25 µg/disc ([1]; strain 9 (Bacillus)) of 10 to 19 mm and a zone of inhibition at 50 µg/disc ([1]; strain 9 (Bacillus)) of 10 to 19 mm. The zone of inhibition at 25 µg/disc ([1]; strain 10 (Halobacillus)) was 10 to 19 mm, the zone of inhibition at 50 µg/disc ([1]; strain 10 (Halobacillus)) was 10 to 19 mm and the zone of inhibition at 25 µg/disc ([1]; strain 11 (Pseudomonas)) was 10 to 19 mm. For the same compound, the zone of inhibition at 50 µg/disc ([1]; strain 11 (Pseudomonas)) was 10 to 19 mm, the zone of inhibition at 25 µg/disc ([1]; strain 12 (Gordonia)) was 10 to 19 mm and the zone of inhibition at 50 µg/disc ([1]; strain 12 (Gordonia)) was 20 to 29 mm. The zone of inhibition at 25 µg/disc ([1]; strain 13 (Bacillus)) was 10 to 19 mm, the zone of inhibition at 50 µg/disc ([1]; strain 13 (Bacillus)) was 10 to 19 mm and the zone of inhibition at 25 µg/disc ([1]; strain 14 (Vibrio)) was under 5 mm. For the same compound, the zone of inhibition at 50 µg/disc ([1]; strain 14 (Vibrio)) was under 5 mm, the zone of inhibition at 25 µg/disc ([1]; strain 16 (Pseudoalteromonas)) was under 5 mm and the zone of inhibition at 50 µg/disc ([1]; strain 16 (Pseudoalteromonas)) was under 5 mm. For the same compound, the zone of inhibition at 25 µg/disc ([1]; strain 17 (Gordonia)) was 10 to 19 mm, the zone of inhibition at 50 µg/disc ([1]; strain 17 (Gordonia)) was 20 to 29 mm and the zone of inhibition at 25 µg/disc ([1]; strain 18 (Microbacterium)) was 10 to 19 mm. The zone of inhibition at 50 µg/disc ([1]; strain 18 (Microbacterium)) was 20 to 29 mm, the zone of inhibition at 25 µg/disc ([1]; strain 19 (Erythrobacter)) was 10 to 19 mm and the zone of inhibition at 50 µg/disc ([1]; strain 19 (Erythrobacter)) was 10 to 19 mm. It also gave a zone of inhibition at 25 µg/disc ([1]; strain 20) of 10 to 19 mm, a zone of inhibition at 50 µg/disc ([1]; strain 20) of 10 to 19 mm and a zone of inhibition at 25 µg/disc ([1]; strain 21) of under 5 mm. It also gave a zone of inhibition at 50 µg/disc ([1]; strain 21) of 10 to 19 mm, a zone of inhibition at 25 µg/disc ([1]; strain 22) of 10 to 19 mm and a zone of inhibition at 50 µg/disc ([1]; strain 22) of 10 to 19 mm. It also gave a zone of inhibition at 25 µg/disc ([1]; strain 24) of 10 to 19 mm, a zone of inhibition at 50 µg/disc ([1]; strain 24) of 10 to 19 mm and a zone of inhibition at 25 µg/disc ([1]; strain 26) of 5 to 9 mm. It also gave a zone of inhibition at 50 µg/disc ([1]; strain 26) of 10 to 19 mm, a zone of inhibition at 25 µg/disc ([1]; strain 27) of 5 to 9 mm and a zone of inhibition at 50 µg/disc ([1]; strain 27) of 10 to 19 mm. The zone of inhibition at 25 µg/disc ([1]; strain 28) was 10 to 19 mm, the zone of inhibition at 50 µg/disc ([1]; strain 28) was 10 to 19 mm and the zone of inhibition at 25 µg/disc ([1]; strain 29) was 10 to 19 mm. For the same compound, the zone of inhibition at 50 µg/disc ([1]; strain 29) was 10 to 19 mm, the zone of inhibition at 25 µg/disc ([1]; strain 30) was 10 to 19 mm and the zone of inhibition at 50 µg/disc ([1]; strain 30) was 10 to 19 mm. The IC50 [2] was 0.174 mg/L, the “Prevention of settlement of barnacle cyprids” value [2] was 2 and the “Overall performance in field assay” value [3] was 7. The “Barnacles, difference in mean cover (%), drug vs VC50” value [3] was −7.67%, the “Serpulids, difference in mean cover (%), drug vs VC50” value [3] was −1.67% and the “Spirorbids, difference in mean cover (%), drug vs VC50” value [3] was −6.66%. The “Total hard fouling, difference in mean cover (%), drug vs VC50” value [3] was −16%, the “Barnacles, difference in mean cover (%), drug vs control” value [3] was −70.67% and the “Serpulids, difference in mean cover (%), drug vs control” value [3] was −3.33%. The “Spirorbids, difference in mean cover (%), drug vs control” value [3] was “+15%”, the “Total hard fouling, difference in mean cover (%), drug vs control” value [3] was −58% and the “Reduction of total hard fouling cover compared to VC50 alone” value [3] was 16%. For the same compound, the “Effect of addition of drug on antifouling performance of VC50 coating (total hard fouling)” value ([3]; in words) was “this reduction was not statistically significant”, the “Barnacles Mean cover (%)” value [3] was 22.33% and the “Serpulids Mean cover (%)” value [3] was 0%. For the same compound, the “Spirorbids Mean cover (%)” value [3] was 16.67% and the “Total hard fouling Mean cover (%)” value [3] was 39%.
